Data: patent publication US7282344B2, “Cation conducting GABAA receptors and their use” (Neurosearch A/S, priority 2001, dated 2007)

Molecular target: T1, GABAA receptor α2 β3 γ2 (wt) (Homo sapiens, UniProt P18507+P28472+P47869)
T1 construct: expressed in transfected cells; host or cells: CHO-K1 (ATCC No. CCL61)
Assay: [^3H]-Muscimol binding, wild-type receptor
Conditions: wt α2 β3 γ2, membranes from CHO-K1 cells
Method: Binding studies were performed using standard methods. Membranes were prepared from CHO-K1 cells expressing recombinant GABAAR subunits. The cells were washed in PBS (Life Technologies), trypsinized, washed twice in tris-citrate buffer (50 mM, pH 7.1) and centrifuged for 10 minutes at 5,000 g.
Membranes were resuspended in membrane wash buffer [20 mM KH2PO4K2HPO4, pH 7.5, 50 mM KCl, 0.025% (w/v) NaN3, and various protease inhibitors (1 mM EDTA, 2 mM benzamidine chloride, 0.1 mM benzethonium chloride, 50 U/ml bacitracin, 0.3 mM phenylmethylsulfonyl fluoride, 10 mg/I ovomucoid trypsin inhibitor, 10 mg/l soybean trypsin inhibitor)] and centrifuged for 30 minutes at 177,000 g and 4° C. The pellet was resuspended in binding assay buffer (20 mM KH2PO4/K2HPO4, pH 7.5 and 100 mM KCl) to a protein concentration of 1 mg/ml and homogenized just before use. Binding was performed with 1, 3, 10, 30, 100 or 300 nM of [^3H]-muscimol (20 Ci/mmol, Dupont-New England Nuclear) in triplicate in a final volume of 250 μl containing 200 μg of protein, and non-specific binding was determined in the presence of 1 mM GABA (Sigma). Samples were incubated at 4° C. for 30 minutes and labelled membranes were harvested on a Brandel cell harvester using GF/B filters (Whatman). The filters were washed with 3×4 ml binding assay buffer and the amount of radioactivity was determined by liquid scintillation counting. […]

T1 sequence (P47869 29-451): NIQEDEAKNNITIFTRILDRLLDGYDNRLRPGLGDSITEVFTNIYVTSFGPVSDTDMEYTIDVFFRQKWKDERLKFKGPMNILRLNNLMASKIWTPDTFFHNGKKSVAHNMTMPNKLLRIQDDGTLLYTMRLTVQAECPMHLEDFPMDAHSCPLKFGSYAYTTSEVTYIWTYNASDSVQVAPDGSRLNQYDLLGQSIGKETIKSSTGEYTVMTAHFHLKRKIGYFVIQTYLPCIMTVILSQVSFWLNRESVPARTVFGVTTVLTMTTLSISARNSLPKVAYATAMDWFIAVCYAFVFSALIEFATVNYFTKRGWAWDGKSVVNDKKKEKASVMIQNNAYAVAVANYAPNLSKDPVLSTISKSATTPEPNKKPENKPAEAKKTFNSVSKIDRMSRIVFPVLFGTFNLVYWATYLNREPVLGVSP
T1 sequence (P28472 26-473): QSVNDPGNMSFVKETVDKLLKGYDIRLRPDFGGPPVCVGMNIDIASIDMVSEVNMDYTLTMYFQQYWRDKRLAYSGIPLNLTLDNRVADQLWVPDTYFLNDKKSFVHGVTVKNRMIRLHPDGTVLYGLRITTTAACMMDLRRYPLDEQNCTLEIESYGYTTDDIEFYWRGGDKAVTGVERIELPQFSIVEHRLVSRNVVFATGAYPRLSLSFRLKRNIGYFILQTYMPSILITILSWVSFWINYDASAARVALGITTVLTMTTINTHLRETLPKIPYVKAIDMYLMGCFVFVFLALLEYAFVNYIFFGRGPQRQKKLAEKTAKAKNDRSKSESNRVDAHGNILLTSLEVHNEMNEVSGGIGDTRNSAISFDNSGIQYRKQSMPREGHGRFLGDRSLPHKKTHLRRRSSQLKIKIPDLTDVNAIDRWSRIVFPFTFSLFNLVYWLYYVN
T1 sequence (P18507 40-475): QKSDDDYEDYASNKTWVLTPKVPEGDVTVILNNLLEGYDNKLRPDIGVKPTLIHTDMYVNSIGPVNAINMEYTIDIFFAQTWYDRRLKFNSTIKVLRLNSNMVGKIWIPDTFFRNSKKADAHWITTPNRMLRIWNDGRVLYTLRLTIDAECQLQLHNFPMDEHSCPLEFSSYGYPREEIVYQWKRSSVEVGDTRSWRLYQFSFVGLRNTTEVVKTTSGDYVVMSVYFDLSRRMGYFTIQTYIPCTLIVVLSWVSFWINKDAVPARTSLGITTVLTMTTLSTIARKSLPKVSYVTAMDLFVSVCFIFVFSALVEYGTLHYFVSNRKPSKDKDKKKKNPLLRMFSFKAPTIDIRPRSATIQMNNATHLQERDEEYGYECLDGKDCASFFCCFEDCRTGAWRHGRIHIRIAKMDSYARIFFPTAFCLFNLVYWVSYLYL

Compound: NCc1cc(=O)[nH]o1 [[^3H] Muscimol, Muscimol]
- Kd: 54.7 ± 14.7 nM
